# Assay: Agilent ZORBAX 300 SB-C18, 150 × 1 mm, 3.5 µm; A: water + 0.01% heptafluorobutyric acid; B: acetonitrile + 0.01% heptafluorobutyric acid; gradient (min/%B) 0/0 100/90
# Details: stereoisomer not certain
row,Compound,LC retention time [min]
1,Cc1ccccc1-n1c(O)c(C=C2C=Nc3ccccc32)c(=O)n(-c2ccccc2C)c1=O,15.9
2,CC(=O)Nc1c(C)cc(C)cc1NC(=O)c1cc2ccccc2o1,12.5
3,COCc1cc(=O)n2[nH]c(NC(C)=O)nc2n1,6.11
4,Cc1ccc(N)c(N)c1,7.42
5,O=C1Cc2ccccc2N1,8.51
6,CC(=O)OC1(C(C)=O)CCC2C3CC(C)C4=CC(=O)CCC4(C)C3CCC21C (stereo unspecified),17
7,CC(=NN=C(C)c1cccc(N)c1)c1cccc(N)c1,8.74
8,Cc1cc(C)c2c(=O)n(CC(=O)NC(C)CCc3ccccc3)c(=O)n(C)c2n1 (stereo unspecified),14.9
9,CN(C)Cc1c[nH]c2ccccc12,7.66
10,C1=CCNC1,2.99
11,COc1cc(C(=O)Nc2ccc(N3CCCC3=O)cc2)cc(OC)c1OC,10.8
12,O=C(O)C1CCCN1Cc1ccccc1 (stereo unspecified),6.6
13,C1CNCCN1,6.38
14,CC(=O)c1[nH]c(C)c(C(=O)c2ccccc2)c1C,11.6
15,Cc1ccc(NC(=S)NC2CC(C)(C)NC(C)(C)C2)cc1,9.5
16,C1CCCNCCC1,7.37
17,COc1ccc(NC(C)c2ccccc2)cc1 (stereo unspecified),10.7
18,O=C(O)C1(c2ccccc2)CCCCN1 (stereo unspecified),6.67
19,Cn1c(=O)c2cc(C(=O)O)ccc2n(C)c1=O,8.5
20,c1ccc(CN(CC2=NCCN2)c2ccccc2)cc1,10.1
21,Cc1ccc(C=NNC(N)=S)cc1,10.8
22,CCOC(=O)CN,6.34

row,Compound,LC retention time [min]
1,CN(C(=O)CCCN1C(=O)c2ccccc2C1=O)C1CC(C)(C)N(C)C(C)(C)C1,9.02
2,CC(=O)NCCC1CCCCN1 (stereo unspecified),6.55
3,CC(C)(C)c1ccc(C2Nc3ccccc3C(=O)N2c2ccccc2)cc1 (stereo unspecified),16.7
4,CC(C)Cn1c(Cc2ccccc2)nc2ccccc21,11.4
5,O=C(O)c1cc(-c2ccccc2)nc2ccccc12,11.6
6,COc1ccc(OC)c2c(C)cc(C)nc12,8.94
7,O=C(NCCCCc1ccccc1)C(=O)NCc1ccco1,14.3
8,Cc1nnc(N)[nH]c1=O,2.72
9,CNC(=S)N1CCCCC1,8.86
10,CCN(CC)c1ccc(CCN)cc1,8.39
11,Cc1nc(=S)c2ccccc2[nH]1,9.45
12,CCCCN1CCCCC1C(=O)Nc1c(C)cccc1C (stereo unspecified),10.5
13,Cc1ccc(C(=O)NCCn2cccc2)cc1,11.9
14,CCOC1CCC2CC3C4CCC(O)C5OC1C2C45CCN3C (stereo unspecified),8.78
15,Nc1cccc2oc3ccccc3c12,11.6
16,Nc1ccc(N2CCOCC2)c(N)c1,7.33
17,CN(C)CCCNCCCN(C)C,7.49
18,Cc1ccccc1N(C)C,7.62
19,CC(C)c1ccc(OCC(=O)N2CCC(C(N)=O)CC2)cc1,10.8
20,CN1CCn2c1nc(N1CCOCC1)nc2=O,7.25
21,Nc1ccc2oc3c(c2c1)CCCC3,9.57
22,S=C(Nc1cccnc1)N1CCc2ccccc21,9.72

row,Compound,LC retention time [min]
1,CC1(C)CC(NCc2ccncc2)CC(C)(C)N1,7.45
2,COc1ccccc1NC(=O)C(=Cc1ccc(OC)c(OC)c1)NC(=O)c1ccccc1,13.5
3,CCOc1ccc(CCNC(=O)N(c2ccccc2)c2ccccc2)cc1OCC,16
4,Cc1ccc(-c2cc(-c3ccc(C)cc3)on2)cc1,18.8
5,O=C(NNC(=O)C1CCCCC1C(=O)O)C(c1ccccc1)c1ccccc1 (stereo unspecified),11.8
6,COc1ccccc1C=NNC(=O)c1ccc(C(C)(C)C)cc1,15.3
7,O=C1c2ccccc2CN1CCNC(=S)NC1CCCCC1,12
8,NC(=O)c1ccc[n+](C2OC(COP(=O)(O)O)C(O)C2O)c1 (stereo unspecified),1.78
9,CC(CCc1ccccc1)NCc1ccco1 (stereo unspecified),9.89
10,N=C(N=C(N)N)N1CCOCC1,6.32
11,COC(=O)Cn1ncccc1=O,6.64
12,CCCCCCCCCCCCCC(N)=O,19.7
13,CC(C)CNCC(C)C,8.04
14,CCNC(=S)Nc1ccccc1N,8.14
15,O=c1oc2ccccc2c2nc(-c3ccncc3)ncc12,12.2
16,CCCCCCCCCCNC(=S)Nc1ccccc1,19.6
17,Oc1ccccc1N1CCCCC1,7.89
18,CNc1ccccc1C,8.19
19,O=C1CCCC(O)=C1C1(O)C(=O)c2ccccc2C1=O,8.21
20,CNCc1cccs1,7
21,CNCCNC,6.51
22,Cn1cc(C(=O)O)c2ccccc21,9.81

row,Compound,LC retention time [min]
1,CC1=NN(Cc2c[nH]c3ccccc23)C(C)(C)C1,9.37
2,Cc1ccc(NC(=O)Cn2c(=O)c3c(C)cc(C)nc3n(-c3ccccc3)c2=O)c(C)c1,15.2
3,O=C1NC(O)C(O)N1 (stereo unspecified),1.42
4,CC(=O)NC1CCN(C)C2CCCCC12 (stereo unspecified),7.11
5,CCc1nc2ccccc2[nH]1,7.88
6,Nc1cccc2cc3ccccc3nc12,8.34
7,CC(C)NC(=O)c1ccc2ccccc2n1,13.1
8,Cc1cc(C)n(CCO)c(=O)n1,5.92
9,O=C(O)c1c2c(nc3ccccc13)CCCC2,5.96
10,COC(=O)c1ccc2ccccc2n1,10.4
11,CN(c1nc(-c2ccc(C(C)(C)C)cc2)nc2ccccc12)C1CCCCC1,15.8
12,COc1cc(N2C=C3N=C(c4ccccc4)NN3C=N2)cc(OC)c1OC,12.1
13,Cc1ccc(-c2ccc(C(=O)O)[nH]2)cc1,12
14,CC(=O)c1cccc(N2C(=O)C3CCCCC3C2=O)c1 (stereo unspecified),12
15,C=C(C)C1CCC2=CC(=O)CC(C)C2(C)C1 (stereo unspecified),17.1
16,Cc1nncn1-c1ccccc1,8.5
17,O=C(CCCCCN1C(=O)c2ccccc2C1=O)Nc1cccc(C(=O)O)c1,11.6
18,CCCCN,6.72
19,CC(C)C(N)C(C)(C)O (stereo unspecified),7.04
20,COc1ccc2c(c1C)CCC1=C(C)C(=O)CCC12C (stereo unspecified),17
21,COc1ccc(OC)c(NC(=O)Cn2c(=O)n(C)c(=O)n(C)c2=O)c1,10.7
22,CC(=O)C1C(=O)C=C(c2ccco2)CC1c1ccco1 (stereo unspecified),13.2

row,Compound,LC retention time [min]
1,CCCCOC(=O)C1C(C)=NC(=O)NC1c1ccc(CC)cc1 (stereo unspecified),14.3
2,c1ccc(Cc2nn[nH]n2)cc1,8.45
3,Cc1ccc(Nc2ccccc2)cc1,16.5
4,CCCC[N+]1(CCCC)CC[N+](CCCC)(CCCC)CC1,9.16
5,c1ccc2c(c1)CCN2,7.26
6,CCC(=O)Nc1ccc(NCC(=O)Nc2ccc(C)cc2C)cc1,11.1
7,Cc1ccc(N2CCN(C(=O)C(c3ccccc3)c3ccccc3)CC2)cc1C,17.5
8,c1cncc(-c2ncc[nH]2)c1,6.65
9,C#CC1(N)CCCCC1,7.77
10,CN1CCC23CCCCC2C1Cc1ccc(O)cc13 (stereo unspecified),9.18
11,Cc1ccccc1CN,7.83
12,Cn1c(=O)c2c(-c3ccccc3)n(Cc3ccccc3)cc2n(C)c1=O,14.3
13,COC(=O)c1c[nH]c2ccccc12,10.9
14,O=C(Nc1cccnc1)c1ccc(=O)[nH]n1,6.84
15,c1ccc(Nc2nc(-c3ccccc3)nc3ccccc23)cc1,11.9
16,CCN(CC)C(=O)N1CCN(C)CC1,7.39
17,Cc1ccc(N2NC(C)(CC(C)C)NC2=S)cc1 (stereo unspecified),15.1
18,C=CCN(CC=C)CC=C,7.98
19,C[N+]1(CC=C2COCO2)CCCCC1,7.48
20,c1cncc(CNc2c3c(nc4ccccc24)CCC3)c1,8.56
21,Cc1ccc(C(=O)Nc2ccccc2C(=O)N2CCN(C)CC2)cc1,8.88
22,NCCNCCNCCN,7.5

row,Compound,LC retention time [min]
1,Cc1nc2ccccc2nc1CSc1cccc2cccnc12,12.8
2,CC(C)(C)c1ccc(C(=O)NC(CC(=O)O)c2ccc(C(C)(C)C)cc2)cc1 (stereo unspecified),16.7
3,CCn1cc(-c2ccn[nH]2)c(C)n1,8.21
4,CC1=CC(=O)C(C)(C)NC1,6.78
5,COC(=O)CCc1ccc(C)c(N)c1,9.03
6,OCC1Cc2ccccc2CN1 (stereo unspecified),7.39
7,NC(=S)NN=C1CCCC1,8
8,O=C(CC1NC(=O)N(C2CCCCC2)C1=O)NCCc1c[nH]c2ccccc12 (stereo unspecified),12.1
9,c1cncc(-c2cn[nH]c2)c1,6.56
10,NC(N)=NC(CC(=O)O)C(=O)O (stereo unspecified),2.11
11,CC(=O)Nc1nc(=S)n(-c2ccccc2)[nH]1,9.02
12,Cn1c2ccccc2c2nc3ccccc3nc21,14.5
13,CN1C2CCC1CC(OC(=O)C(CO)c1ccccc1)C2 (stereo unspecified),8.92
14,CCN(CC)C(=O)c1cc(C)nc2c1c(=O)n(CC(=O)Nc1ccccc1)c(=O)n2C,12
15,O=C1C=CC(=O)N1c1ccc(N2CCCCC2)cc1,9.22
16,Nc1ccc2cc[nH]c2c1,7.56
17,C=CC1CN2CCC1CC2C(O)c1ccnc2ccc(OC)cc12 (stereo unspecified),9.1
18,CCCCCn1c(CCC)nc2ccccc21,11.3
19,CCOC(=O)c1ccc(N(CC)CC)cc1,12.5
20,CCCCC(N)=O,6.86
21,O=C(O)Cc1c[nH]c(=O)[nH]c1=O,2.17
